Experiment in all cases: NCI anticancer screen, dose series, 48 h
The subject of assay [1] is EKVX.
Assay [2] concerns RXF 393.
Assay [3] has as its system TK-10.
In assay [4] the test system is T47D.
Assay [5] has as its system HOP-92.
In assay [6] the test system is SK-MEL-28.
Assay [7] deals with SR.
Assay [8] concerns KM12.
In assay [9] the test system is HCT-116.
Assay [10] deals with NCI-H23.
Assay [11] concerns UACC-62.
The test system of assay [12] is PC-3.
Assay [13] concerns SK-MEL-2.
For assay [14], the system named is HL-60.
Assay [15] relates to NCI-H522.
Assay [16] deals with MDA-MB-231.
The test system of assay [17] is HCC 2998.
Assay [18] relates to NCI-H460.
The test system of assay [19] is SK-OV-3.
The test system of assay [20] is SW-620.

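Following 48 hours of exposure in 96-well plates, responses at five concentrations were used to interpolate endpoints linearly. GI50 marks 50% less growth.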 Active and inactive are the calls of the source. Rule as the data show it: active = GI50 up to about 1.1 µM and inactive = higher. Some results are limits rather than exact numbers.

As for `CCCCCCCCCc1cc(-c2ccc(C=O)s2)sc1-c1ccc(C=O)s1`, the GI50 was 70.6 µM (inactive) in assay [1]; 8.81 µM (inactive) in [2]; 6.47 µM (inactive) in [3]; 17.1 µM (inactive) in assay [4]; 27.9 µM (inactive) in [5]; 33.7 µM (inactive) in assay [6]. The GI50 in [7] is 4.08 µM (inactive); in assay [8] it was 36.6 µM (inactive); in [9] it was 16.6 µM (inactive); in assay [10] it was 20.1 µM (inactive); in assay [11], 7.26 µM (inactive); in assay [12], 37.8 µM (inactive). For the same molecule, the GI50 in assay [13] is 25.5 µM (inactive); in [14] it was 16.8 µM (inactive); in [15], 15.9 µM (inactive); in assay [16], 26.2 µM (inactive); in [17], 35.6 µM (inactive); in assay [18] it was 25.1 µM (inactive). The GI50 was 29 µM (inactive) in assay [19] and 30.2 µM (inactive) in assay [20].

On to `O=c1c(F)cn(Cc2c(Cl)cccc2Cl)c(=O)n1Cc1c(Cl)cccc1Cl`, for which the GI50 in assay [1] was 21.4 µM (inactive); in assay [2] it was 19.7 µM (inactive); in assay [3], > 31.6 µM (inactive); in [4], 20.7 µM (inactive); in assay [5], 20.3 µM (inactive); in [6], > 31.6 µM (inactive). The GI50 was 19.4 µM (inactive) in [7]; > 31.6 µM (inactive) in assay [8]; 23.8 µM (inactive) in assay [9]; 27.7 µM (inactive) in assay [10]; 26 µM (inactive) in assay [11]; 17.3 µM (inactive) in assay [12]. In addition, the GI50 is > 31.6 µM (inactive) in assay [13]; 20 µM (inactive) in [14]; 16 µM (inactive) in assay [15]; > 31.6 µM (inactive) in assay [16]; > 31.6 µM (inactive) in [17]; > 31.6 µM (inactive) in assay [18]. In addition, the GI50 in assay [19] and in [20] was > 31.6 µM (inactive) in each case.

As to `C1CCN2CC3CCCN4CCCC(C2C1)C34` (stereo not given), the GI50 in assay [1], in [2], in assay [3], in assay [4], in assay [5] and in assay [6] was > 100 µM (inactive) in each case. Also, the GI50 in [7], in [8], in [9], in assay [10], in assay [11] and in [12] was > 100 µM (inactive) each time. For the same molecule, the GI50 in assay [13], in assay [14], in assay [15], in assay [16], in assay [17] and in assay [18] was > 100 µM (inactive) in each case. Moreover, the GI50 in [19] and in [20] was > 100 µM (inactive) each time.

Turning to `O=c1nc(N2CCN(c3ccccc3)CC2)ccn1C1OC(CO)C(O)C1O` (stereo not given), the GI50 in [1] was 61.2 µM (inactive); in assay [2], > 100 µM (inactive); in assay [3] it was > 100 µM (inactive); in [4], 22.5 µM (inactive); in assay [5] it was 24.2 µM (inactive); in [6] it was > 100 µM (inactive). Moreover, the GI50 in assay [7] was 28.4 µM (inactive); in assay [8], 38.1 µM (inactive); in [9] it was 56 µM (inactive); in assay [10], 55.3 µM (inactive); in assay [11] it was 59.7 µM (inactive); in assay [12], 74.5 µM (inactive). Further, the GI50 in [13] is > 100 µM (inactive); in assay [14], 39.9 µM (inactive); in assay [15], 52.8 µM (inactive); in [16], > 100 µM (inactive); in assay [17], 35.9 µM (inactive); in assay [18] it was > 100 µM (inactive). In addition, the GI50 is > 100 µM (inactive) in [19] and 82 µM (inactive) in assay [20].

For `Clc1ccc(OCC2NC3C=CC32)cn1` (stereo not given), the GI50 was 24.9 µM (inactive) in [1]; > 100 µM (inactive) in assay [2]; > 100 µM (inactive) in assay [3]; > 100 µM (inactive) in assay [4]; 67 µM (inactive) in assay [5]; > 100 µM (inactive) in [6]. In addition, the GI50 in assay [7] was 39.8 µM (inactive); in assay [8], > 100 µM (inactive); in assay [9], > 100 µM (inactive); in assay [10] it was > 100 µM (inactive); in assay [11], > 100 µM (inactive); in [12], > 100 µM (inactive). For the same molecule, the GI50 in assay [13], in assay [14], in assay [15], in assay [16], in assay [17] and in [18] was > 100 µM (inactive) each time. Further, the GI50 in assay [19] and in assay [20] was > 100 µM (inactive) in each case.

For `Cc1cc(N(CCC#N)CCC#N)ccc1/C=C(\NC(=O)/C=C/c1ccccc1)C(=O)NN`, the GI50 in assay [1] is > 73.3 µM (inactive); in assay [2], > 57.3 µM (inactive); in assay [3] it was > 51.3 µM (inactive); in [4] it was 55 µM (inactive); in assay [5], 20.3 µM (inactive); in assay [6], > 100 µM (inactive). The GI50 in [7] is > 100 µM (inactive); in [8] it was > 100 µM (inactive); in assay [9], 99.1 µM (inactive); in assay [10] it was > 65.8 µM (inactive); in assay [11], > 91 µM (inactive); in assay [12], > 100 µM (inactive). For the same molecule, the GI50 is > 61.7 µM (inactive) in assay [13]; > 100 µM (inactive) in assay [14]; > 56.1 µM (inactive) in [15]; 32.4 µM (inactive) in assay [16]; > 100 µM (inactive) in [17]; > 66.8 µM (inactive) in assay [18]. Besides, the GI50 is 31 µM (inactive) in assay [19] and > 100 µM (inactive) in assay [20].

As for `CCOC(=O)N/N=C(/N)c1cccc([N+](=O)[O-])c1`, the GI50 in assay [1], in assay [2], in [3], in assay [4], in assay [5] and in assay [6] was > 100 µM (inactive) each time. The GI50 in [7], in assay [8], in assay [9], in assay [10], in [11] and in assay [12] was > 100 µM (inactive) each time. The GI50 in assay [13], in assay [14], in [15], in [16], in assay [17] and in assay [18] was > 100 µM (inactive) in each case. For the same molecule, the GI50 in [19] and in [20] was > 100 µM (inactive) throughout.

`Cc1nc(C(N)=S)sc1C(=O)CC(=O)C(=O)Nc1nc2ccccc2[nH]1`: the GI50 was > 100 µM (inactive) in assay [1]; > 100 µM (inactive) in assay [2]; > 100 µM (inactive) in [3]; > 100 µM (inactive) in assay [4]; 69.5 µM (inactive) in [5]; > 100 µM (inactive) in assay [6]. The GI50 in assay [7], in [8], in [9], in assay [10], in assay [11] and in assay [12] was > 100 µM (inactive) throughout. The GI50 in assay [13] is > 100 µM (inactive); in assay [14] it was 46.8 µM (inactive); in assay [15], > 100 µM (inactive); in assay [16], > 100 µM (inactive); in assay [17], > 100 µM (inactive); in assay [18] it was > 100 µM (inactive). The GI50 in [19] and in assay [20] was > 100 µM (inactive) each time.

For `O=C1C=CC(=O)N1c1ccc(I)cc1`, the GI50 is 23.3 µM (inactive) in [1]; 17.9 µM (inactive) in [2]; 16.4 µM (inactive) in [3]; 25.6 µM (inactive) in assay [4]; 21.3 µM (inactive) in assay [5]; 18.5 µM (inactive) in assay [6]. In addition, the GI50 was 5.77 µM (inactive) in assay [7]; 21.4 µM (inactive) in assay [8]; 15.6 µM (inactive) in assay [9]; 23.8 µM (inactive) in assay [10]; 17.5 µM (inactive) in assay [11]; 18.3 µM (inactive) in assay [12]. Moreover, the GI50 was 20.4 µM (inactive) in assay [13]; 2.84 µM (inactive) in assay [14]; 18.6 µM (inactive) in assay [15]; 23.6 µM (inactive) in [16]; 19.1 µM (inactive) in [17]; 33.5 µM (inactive) in assay [18]. Besides, the results for the GI50 in assay [19] and in [20] were 16.5 µM (inactive) and 7.08 µM (inactive), respectively.

With `CNc1cccnc1/C=N/N=C(/N)S`, the GI50 in [1] is 4.39 µM (inactive); in assay [2] it was 1.15 µM (inactive); in assay [3], 8.65 µM (inactive); in assay [4], 2.7 µM (inactive); in [5], 0.849 µM (active); in [6] it was 7.74 µM (inactive). In addition, the GI50 in [7] is > 2.84 µM (inactive); in [8] it was 4.52 µM (inactive); in assay [9] it was 1.22 µM (inactive); in assay [10] it was 0.403 µM (active); in assay [11], 0.379 µM (active); in [12], 1.69 µM (inactive). Also, the GI50 in assay [13] was 9.89 µM (inactive); in [14], 0.564 µM (active); in [15], 2.47 µM (inactive); in assay [16], 6.38 µM (inactive); in [17], 1.82 µM (inactive); in [18] it was 2.46 µM (inactive). The GI50 is 4.49 µM (inactive) in assay [19] and 3.05 µM (inactive) in [20].

The values are drawn from ChEMBL document CHEMBL1201862, “PubChem BioAssay data set” (2004).
